1 molecule from patent publication US7166620B2 (dated 2007) can be followed below.

As for `CO/C=C(/C(=O)OC)c1ccccc1COc1nc(C(F)(F)F)sc1C`, the melting point (usually the temperature, or range, at which the solid turns liquid) stood at 59 °C.
